Reference: PubChem BioAssay (NCI)
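Where inhibition never reached the appropriate level, the endpoint shown equals the highest concentration tested. Otherwise, values were interpolated linearly from a five-concentration, 48-hour dose response in 96-well plates. TGI is the concentration that stops growth completely.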

Key:
Assay in all cases: inhibition of tumour cell growth, NCI panel, 48 h
UO-31 renal = test system: UO-31 renal
HOP-62 NSCLC = test system: HOP-62 NSCLC
T-47D breast = test system: T-47D breast
U251 CNS = test system: U251 CNS
SF-268 CNS = test system: SF-268 CNS
ACHN renal = test system: ACHN renal
EKVX NSCLC = test system: EKVX NSCLC
RPMI-8226 leukemia = test system: RPMI-8226 leukemia
MOLT-4 leukemia = test system: MOLT-4 leukemia
HL-60(TB) leukemia = test system: HL-60(TB) leukemia

SMILES	TGI (UO-31 renal)	TGI (HOP-62 NSCLC)	TGI (T-47D breast)	TGI (U251 CNS)	TGI (SF-268 CNS)	TGI (ACHN renal)	TGI (EKVX NSCLC)	TGI (RPMI-8226 leukemia)	TGI (MOLT-4 leukemia)	TGI (HL-60(TB) leukemia)
COc1cc(-c2nc3nc(N4CCN(C)CC4)ccc3[nH]2)c(OC)c2[nH]c(COC(C)=O)nc12	85.2 µM	> 100 µM	> 100 µM	46.5 µM	> 100 µM	> 100 µM	> 100 µM	–	–	–
C/C(N=Nc1nc2ccccc2o1)=C1/C=CC=CN1O	> 100 µM	> 100 µM	> 100 µM	> 100 µM	> 100 µM	> 100 µM	24.3 µM	> 100 µM	6.3 µM	–
CC(=O)Nc1ccc(-c2nnc(SCC(=O)Nc3ccccc3C)o2)cc1	> 100 µM	> 100 µM	–	> 100 µM	> 100 µM	> 100 µM	–	> 100 µM	> 100 µM	> 100 µM
COc1cc(C2S/C(=C/c3ccccc3)C(=O)N2c2cccc([N+](=O)[O-])c2)cc(OC)c1OC (stereo unspecified)	> 100 µM	> 100 µM	21.4 µM	> 100 µM	> 100 µM	> 100 µM	> 100 µM	–	> 100 µM	–
COC(=O)n1c(CBr)c(Br)c2ccccc21	71.1 µM	54 µM	–	82.4 µM	75.8 µM	47.9 µM	–	58.7 µM	76.3 µM	59.8 µM
COc1ccc(C2c3cc4c(cc3OC(N3CCCCC3)C2C)OCO4)cc1 (stereo unspecified)	> 100 µM	> 100 µM	> 100 µM	–	> 100 µM	> 100 µM	> 100 µM	> 100 µM	> 100 µM	–
COc1nc2[nH]ccc2c(=O)n1C	–	–	–	> 100 µM	> 100 µM	> 100 µM	> 100 µM	> 100 µM	> 100 µM	> 100 µM
c1ccc(Nc2nnc(-c3nsc4ccccc34)o2)cc1	> 100 µM	> 100 µM	–	> 100 µM	> 100 µM	> 100 µM	> 100 µM	> 100 µM	> 100 µM	> 100 µM
O=C(/C=C/c1ccccc1O)/C=C/c1ccccc1O	3.59 µM	5.76 µM	–	2.89 µM	0.905 µM	3.35 µM	–	0.76 µM	> 100 µM	7.62 µM
CC(=O)OCC1OC(c2nnc(C)o2)=CC(OC(C)=O)C1OC(C)=O (stereo unspecified)	> 100 µM	> 100 µM	–	> 100 µM	> 100 µM	> 100 µM	> 100 µM	> 100 µM	> 100 µM	> 100 µM
CCCCCCCCC/C=C1\CC(CO)(COC(=O)c2ccccc2)OC1=O (stereo unspecified)	32.8 µM	29.8 µM	72.6 µM	39.5 µM	54 µM	> 100 µM	34 µM	–	> 100 µM	–
CCCCCCOc1ccc(NC2=C(Cl)C(=O)c3ncccc3C2=O)cc1	2.72 µM	3.88 µM	4.03 µM	3.08 µM	4.07 µM	> 10 µM	> 10 µM	–	> 10 µM	–
N#Cc1c(N2CCN(c3ccc([N+](=O)[O-])cc3)CC2)[n+](=O)c2ccc(Cl)cc2n1[O-]	5.75 µM	–	–	5.81 µM	10.9 µM	2.24 µM	10.8 µM	–	8.52 µM	–
c1ccc(C2=C(c3ccccc3)P(c3ccccc3)C2)cc1 (stereo unspecified)	–	> 100 µM	> 100 µM	> 100 µM	> 100 µM	> 100 µM	–	–	> 100 µM	–
O=C(C#Cc1cn(C2CC(O)C(CO)O2)c(=O)[nH]c1=O)c1ccccc1 (stereo unspecified)	> 100 µM	> 100 µM	36.7 µM	> 100 µM	> 100 µM	> 100 µM	> 100 µM	> 100 µM	–	–
COC(=O)c1ccccc1CC(Cc1ccccc1)C(=O)OC (stereo unspecified)	> 100 µM	> 100 µM	–	> 100 µM	61.3 µM	> 100 µM	> 100 µM	> 100 µM	90.7 µM	55.9 µM
Clc1ncnc2c1ncn2CCCCCCCCCCCCn1cnc2c(Cl)ncnc21	25.8 µM	33 µM	–	23.7 µM	27.7 µM	27.9 µM	33 µM	25.4 µM	42.9 µM	19.1 µM
Nc1nc(SCCC/C=C/I)nc2c1ncn2C1OC(CO)C(O)C1O (stereo unspecified)	> 202 µM	> 202 µM	–	> 202 µM	> 202 µM	> 202 µM	–	> 202 µM	> 202 µM	> 202 µM
CCOC12SC(=Nc3ccc(C)cc3)NN1C(=S)N(C)N=C2C (stereo unspecified)	–	> 100 µM	–	> 100 µM	> 100 µM	> 100 µM	> 100 µM	> 100 µM	> 100 µM	> 100 µM
CN1CC2CC(C1)c1cccc(=O)n1C2 (stereo unspecified)	> 100 µM	> 100 µM	> 100 µM	> 100 µM	> 100 µM	> 100 µM	> 100 µM	–	–	–
CN1CCCCC(C(O)(c2ccccc2)c2ccccc2)C1=O (stereo unspecified)	> 100 µM	> 100 µM	–	> 100 µM	> 100 µM	> 100 µM	> 100 µM	65.7 µM	> 100 µM	–
